The structures appear in SMILES notation.

13 compounds from article PMC11617876 (Heliyon, 2024) can be followed below.

The subject of one series is albino rats. The series can be described thus: acute toxicity studies. Particulars: oral. It is filed as in vivo, rat.
Series [1] deals with carrageenan-induced paw edema. The series can be described thus: carrageenan-induced rat paw edema, in vivo anti-inflammatory activity. Particulars: diclofenac sodium = 1.

Regarding `Clc1ccc(-c2nocc2-c2ccccc2)cc1` [5b, 3-(4-Chloro-phenyl)-4-phenyl-isoxazole], the “toxicity in laboratory tests” value in the series on albino rats is recorded as “low toxicity”. In series [1], this compound showed an Effectiveness of 0.83. Consider `Brc1cccc(-c2nocc2-c2ccccc2)c1` [5g, 3-(3-Bromo-phenyl)-4-phenyl-isoxazole], for which, in series [1], the Effectiveness was found to be 0.22. Still for that read-out and setting: the figure for `COc1ccc(-c2nocc2-c2ccccc2)cc1` [5m, 3-(4-Methoxy-phenyl)-4-phenyl-isoxazole] is 0.63. Still for that read-out and setting: then `O=[N+]([O-])c1ccc(-c2nocc2-c2ccccc2)cc1` [5f, 3-(4-Nitro-phenyl)-4-phenyl-isoxazole], with 0.66.

As for `Oc1cccc(-c2nocc2-c2ccccc2)c1` [5d, 3-(4-Phenyl-isoxazol-3-yl)-phenol], the “toxicity in laboratory tests” value with albino rats is given as “low toxicity”. This compound returned an Effectiveness in series [1] of 0.71. Regarding `O=C(O)Cc1ccccc1Nc1c(Cl)cccc1Cl` [Diclofenac sodium, reference compound], in series [1], the Effectiveness turned out to be 1. The same measure, in the same setting: then `O=[N+]([O-])c1cccc(-c2nocc2-c2ccccc2)c1` [5e, 3-(3-Nitro-phenyl)-4-phenyl-isoxazole], with 0.16; and `Fc1ccc(-c2nocc2-c2ccccc2)cc1` [5j, 3-(4-Fluoro-phenyl)-4-phenyl-isoxazole], with 0.80. Still for that read-out and setting: then `COc1cccc(-c2nocc2-c2ccccc2)c1` [5l, 3-(3-Methoxy-phenyl)-4-phenyl-isoxazole], with 0.57; and `COc1ccccc1-c1nocc1-c1ccccc1` [5k, 3-(2-Methoxy-phenyl)-4-phenyl-isoxazole], with 0.09. Same read-out and setting: the figure for `Brc1ccc(-c2nocc2-c2ccccc2)cc1` [5h, 3-(4-Bromo-phenyl)-4-phenyl-isoxazole] is 0.02. With `Oc1ccc(-c2nocc2-c2ccccc2)cc1` [5c, 4-(4-Phenyl-isoxazol-3-yl)-phenol], in the series on albino rats, the “toxicity in laboratory tests” value is recorded as “low toxicity”. The Effectiveness in series [1] stood at 0.81.

In series [1], `Clc1cccc(-c2nocc2-c2ccccc2)c1` [5i, 3-(3-Chloro-phenyl)-4-phenyl-isoxazole] showed an Effectiveness of 0.55.
